Where a name gives a salt, the structure may show the parent alone. Read-outs that look alike come from different tables or passages of the source.
System: murine neural precursor cells (neurosphere cultures)
Experiment: HTS of LOPAC library against secondary neurosphere cultures, MTT proliferation assay at 3 μM, day 7 (z score, P value)
Assay type: cell-based, mouse
[1] = LOPAC primary screen, neurosphere MTT proliferation, 3 μM, day 7
[2] = yes/no: significantly inhibited neurosphere proliferation (P<0.01) in the primary screen
[3] = primary LOPAC screen, 3 μM, MTT, neurosphere proliferation
[4] = yes/no: significantly inhibited neurosphere proliferation in the primary screen
[5] = yes/no: significantly inhibited neurosphere proliferation in primary screen
[6] = LOPAC library screen, 3 μM, MTT, secondary neurosphere cultures, day 7
[7] = LOPAC library screen at 3 μM, MTT, secondary neurosphere cultures, screened in singlets
[8] = yes = significantly inhibited neurosphere proliferation (P<0.01) in the primary screen
[9] = LOPAC library screen, 3 μM, MTT, neurosphere cultures
[10] = yes/no: significantly inhibited neurosphere proliferation (P<0.01) in primary screen
[11] = LOPAC screen, neurosphere MTT proliferation, 3 μM, day 7
[12] = LOPAC library screen at 3 μM, secondary neurosphere cultures, MTT

For COC(=O)N1CCN(C(=O)Cc2ccc(Cl)c(Cl)c2)C(CN2CCCC2)C1.O=C(O)/C=C/C(=O)O (racemic) [GR-89696 fumarate], the “Z Score” value was −0.7788, the Z score [1] was −0.779 and the Activity [2] was “no”.
In the case of NC1C=CC=C(C(=O)O)C1 (racemic) [Gabaculine hydrochloride], the “Z Score” value is reported as −2.256, the Z score [3] is reported as −2.256 and the Activity [4] is reported as “no”.
With O=C(c1cc(O)c(O)c([N+](=O)[O-])c1)c1ccccc1F [Ro 41-0960] the “Z Score” value was −0.36, the Z score [1] was −0.360 and the Activity [5] was “no”.
CCC(=O)c1ccc2c(c1)N(CCCN(C)C)c1ccccc1S2 [Propionylpromazine hydrochloride] was tested, and the “Z Score” value [6] was −1.584, the Z score [1] was −1.584 and the Activity [2] was “no”.
For COc1cc2ncnc(Nc3cccc(Cl)c3)c2cc1OC [Tyrphostin AG 1478], the “Z Score” value [7] was 1.87, the Z score [1] was 1.870 and the Activity [2] was “no”.
COc1cc2nc(N3CCN(C(=O)c4ccco4)CC3)nc(N)c2cc1OC [Prazosin hydrochloride] was tested, and the Activity was “yes”, the “Z Score” value [6] was −2.902 and the Z score [1] was −2.902.
C[N+]1(C)[C@@H]2C[C@@H](OC(=O)[C@H](CO)c3ccccc3)C[C@H]1[C@@H]1O[C@@H]12.[Br-] [(−)-Scopolamine methyl bromide] was tested, and the “Z Score” value was −0.8468, the Z score [1] was −0.847 and the Activity [5] was “no”.
For Cl.Cl.Clc1cccc(N2CCNCC2)c1, the “Z Score” value was 0.9516.
In the case of CCCN(CCC)C(=O)C(CCC(=O)O)NC(=O)c1ccccc1 (stereo not shown) [Proglumide], the “Z Score” value [6] is reported as −1.907, the Z score [1] is reported as −1.907 and the Activity [8] is reported as “no”.
CSc1ccc2c(c1)C(N1CCN(C)CC1)Cc1ccccc1S2 (stereo not shown) [Methiothepin (38), Methiothepin, reference compound] was tested, and the “Z Score” value (168 h, 3 µM) was 1.868, the Z score (168 h, 3 µM) was 1.868 and the Activity [2] was “no”.
Cc1ncc(CNC(=O)N(CCCl)N=O)c(N)n1.Cl [Nimsutine hydrochloride] was tested, and the Z score [1] was −0.652 and the Activity [8] was “no”.
For CC(Oc1ccc(Oc2cnc3ccc(Cl)cc3n2)cc1)C(=O)O (stereo not shown) [XK469], the Activity was “yes”, the “Z Score” value was −9.355 and the Z score [1] was −9.355.
With O=C(O)c1cc2cc(Cc3cccnc3)ccc2o1 [Furegrelate sodium] the “Z Score” value [9] was 0.3638, the Z score [1] was 0.364 and the Activity [10] was “no”.
With CN(N=O)c1cc(O)ccc1O [Dephostatin] the “Z Score” value was 0.6209, the Z score [11] was 0.621 and the Activity [10] was “no”.
For O=C(CCCN1CCC2(CC1)C(=O)NCN2c1ccccc1)c1ccc(F)cc1 [Spiperone hydrochloride], the “Z Score” value [12] was −0.5168, the Z score [1] was −0.517 and the Activity [5] was “no”.
With CCOC(=O)Nc1ccc(NCc2ccc(F)cc2)nc1N [Flupirtine maleate] the “Z Score” value [12] was −0.484, the Z score [1] was −0.484 and the Activity [10] was “no”.
O=C(CCCN1CCC(O)(c2ccc(Cl)cc2)CC1)c1ccc(F)cc1 [Haloperidol] was tested, and the “Z Score” value [12] was −0.7399, the Z score [1] was −0.740 and the Activity [10] was “no”.
In the case of CNCCC=C1c2ccccc2CCc2ccccc21 [Nortriptyline hydrochloride], the “Z Score” value [12] is reported as −1.095, the Z score [1] is reported as −1.095 and the Activity [8] is reported as “no”.
With OCCN(CCO)c1nc(N2CCCCC2)c2nc(N(CCO)CCO)nc(N3CCCCC3)c2n1 [Dipyridamole] the Activity was “no”, the “Z Score” value [12] was −0.7267 and the Z score [11] was −0.727.
Cc1ccc(S(=O)(=O)NC(=O)NN2CCCCCC2)cc1 [Tolazamide] was tested, and the “Z Score” value [9] was 1.431, the Z score [3] was 1.431 and the Activity [4] was “no”.
For CC(C)C[C@H](N)CSSC[C@@H](N)CC(C)C.Cl.Cl [L-Leucinethiol, oxidized dihydrochloride], the “Z Score” value was −0.584, the Z score [1] was −0.584 and the Activity [10] was “no”.
For CC[N+](CC)(CC)CC(=O)Nc1c(C)cccc1C.[Br-], the “Z Score” value [9] was 0.2653, the Z score [1] was 0.265 and the Activity [10] was “no”.
With Cc1ccccc1N1CCN(S(=O)(=O)CC23CCC(CC2NC(=O)C(N)CCS(C)(=O)=O)C3(C)C)CC1 [L-368,899] the “Z Score” value was 0.2909, the Z score [1] was 0.291 and the Activity [10] was “no”.
With NC(=O)c1ncn([C@@H]2O[C@H](CO)[C@@H](O)[C@H]2O)n1 [Ribavirin] the Activity was “no”.
For C[C@H]1C[C@H]2[C@@H]3CCC4=CC(=O)C=C[C@]4(C)[C@@]3(Cl)[C@@H](O)C[C@]2(C)[C@@]1(O)C(=O)CO [Beclomethasone], the “Z Score” value [9] was 0.267, the Z score [3] was 0.267 and the Activity [4] was “no”.
With R(−)-Apocodeine hydrochloride the “Z Score” value was −9.865, the Z score [1] was −9.865 and the Activity [2] was “yes”.
For O=C1CCC(N2C(=O)c3ccccc3C2=O)C(=O)N1 (stereo not shown) [(B1)-Thalidomide], the “Z Score” value was 0.521.
For NCCc1c[nH]c2ccc(C(N)=O)cc12.O=C(O)/C=C\C(=O)O [5-Carboxamidotryptamine maleate], the “Z Score” value [7] was 1.667, the Z score [11] was 1.667 and the Activity [10] was “no”.
Cl.NCC(O)C1CCCCCCC1 (stereo not shown) was tested, and the “Z Score” value was −0.5747.
Hydroxytacrine maleate was tested, and the “Z Score” value was −0.2043, the Z score [1] was −0.204 and the Activity [10] was “no”.
CC(C)c1cccc(C(C)C)c1O [Propofol] was tested, and the Activity was “no”, the “Z Score” value was 0.3768 and the Z score was 0.377.
With C=C(C)[C@H]1CN[C@H](C(=O)O)[C@H]1CC(=O)O [Kainic acid] the “Z Score” value was −0.3169, the Z score [1] was −0.317 and the Activity [10] was “no”.
Nc1nccc2c1ncn2[C@@H]1O[C@H](CO)[C@@H](O)[C@H]1O [3-deazaadenosine] was tested, and the “Z Score” value [7] was 1.77, the Z score [11] was 1.770 and the Activity [10] was “no”.
In the case of CCCCCCCCCCCCCCCCCCOCC(COP(=O)([O-])OCC[N+](C)(C)C)OC (stereo not shown) [ET-18-OCH3], the “Z Score” value [12] is reported as −0.6259, the Z score [11] is reported as −0.626 and the Activity [10] is reported as “no”.
With CCCCCC(O)CCCC(=O)O.[Na] (stereo not shown) [5-hydroxydecanoic acid sodium] the “Z Score” value (168 h, 3 µM) was 0.2332, the Z score (168 h, 3 µM) was 0.233 and the Activity [10] was “no”.
CNCCc1ccc(O)c(O)c1.Cl [N-Methyldopamine hydrochloride] was tested, and the “Z Score” value [6] was −1.219, the Z score [11] was −1.219 and the Activity [10] was “no”.
In the case of COc1ccc(-n2nc(C(F)(F)F)cc2-c2ccc(Cl)cc2)cc1 [SC-560], the “Z Score” value is reported as 1.113 and the Z score [1] is reported as 1.113.
With COC(=O)C1=C(C)NC(C)=C(C(=O)OC)C1c1ccccc1[N+](=O)[O-] [Nifedipine] the “Z Score” value (168 h, 3 µM) was −0.2937 and the Z score (168 h, 3 µM) was −0.294.
For N[C@@H](CS(=O)O)C(=O)O [L-Cysteinesulfinic Acid], the “Z Score” value [9] was 1.458, the Z score [11] was 1.458 and the Activity [10] was “no”.
For O=S(=O)(c1cccc2cnccc12)N1CCNCC1 [HA-100], the “Z Score” value was −0.6892, the Z score [1] was −0.689 and the Activity [2] was “no”.
For JL-18, the “Z Score” value was −0.2861, the Z score [1] was −0.286 and the Activity [10] was “no”.
CC(=O)NBr [N-Bromoacetamide] was tested, and the “Z Score” value [6] was −1.362, the Z score [11] was −1.362 and the Activity [10] was “no”.
With CN(C)CCOC(C)(c1ccccc1)c1ccccn1 (stereo not shown) [Doxylamine succinate] the “Z Score” value [7] was 1.736, the Z score [11] was 1.736 and the Activity [10] was “no”.
In the case of Nc1cc(=O)[nH]c(N)n1 [2,6-Diamino-4-pyrimidinone], the “Z Score” value [12] is reported as −1.072, the Z score [11] is reported as −1.072 and the Activity [10] is reported as “no”.
COC(=O)c1c(-c2cc(OC)c(OC)c(OC)c2)c2ccc(OCc3ccccn3)cc2c(=O)n1-c1ccc(N)cc1 [T-1032] was tested, and the “Z Score” value was −2.02, the Z score [3] was −2.020 and the Activity [4] was “no”.
In the case of CCCN1CCC[C@@H]2Cc3nc(N)ncc3C[C@H]21.Cl.Cl [Quinelorane dihydroechloride], the “Z Score” value is reported as −1.567.
With O=C(CCNNC(=O)c1ccncc1)NCc1ccccc1 [Nialamide] the “Z Score” value [9] was −0.02937, the Z score [1] was −0.029 and the Activity [8] was “no”.
For CC1CCCC=CC2CC(O)CC2C(O)C=CC(=O)O1 (stereo not shown), the “Z Score” value was −11.27, the Z score [1] was −11.274 and the Activity [8] was “yes”.
COC(=O)Nc1nc2ccc(C(=O)c3cccs3)cc2[nH]1 [Nocodazole] was tested, and the “Z Score” value [12] was −0.1891, the Z score [1] was −0.189 and the Activity [8] was “no”.
With CCCCNc1ccc(C(=O)OCCN(C)C)cc1 [Tetracaine hydrochloride] the “Z Score” value [9] was −0.01953, the Z score [3] was −0.020 and the Activity [4] was “no”.
In the case of CCCCCCCCCCCCCCCC(=O)NCCO [Palmitoylethanolamide], the Activity is reported as “no”, the “Z Score” value [12] is reported as −0.9134 and the Z score [1] is reported as −0.913.
For Br.Oc1cc2c(c(Cl)c1O)CCNCC2c1ccccc1 (racemic) [(±)-6-Chloro-PB hydrobromide], the Z score [1] was −2.267 and the Activity [5] was “no”.
With Cc1cc(C(C)(C)C)c(O)c(C)c1CC1=NCCN1 [Oxymetazoline hydrochloride] the “Z Score” value [6] was −2.72, the Z score [1] was −2.720 and the Activity [8] was “yes”.
In the case of N[C@H]1CONC1=O [L-Cycloserine], the “Z Score” value [12] is reported as −0.1552, the Z score [3] is reported as −0.155 and the Activity [4] is reported as “no”.
In the case of COC(=O)[C@H]1[C@H]2C[C@@H]3c4[nH]c5cc(OC)ccc5c4CCN3C[C@H]2C[C@@H](OC(=O)c2cc(OC)c(OC)c(OC)c2)[C@@H]1OC [Reserpine], the “Z Score” value [12] is reported as −1.023, the Z score [1] is reported as −1.023 and the Activity [8] is reported as “no”.
For Nc1ncn([C@@H]2O[C@H](CO)[C@@H](O)[C@H]2O)c(=O)n1 [5-azacytidine], the “Z Score” value [6] was −1.398, the Z score [3] was −1.398 and the Activity [4] was “no”.
With O=C1Nc2ccc(I)cc2/C1=C/c1cc(Br)c(O)c(Br)c1 [GW5074] the “Z Score” value was −0.1619, the Z score [1] was −0.162 and the Activity [10] was “no”.
